From ChEMBL document CHEMBL5042503, “"Clickable" Albumin Binders for Modulating the Tumor Uptake of Targeted Radiopharmaceuticals” (J Med Chem, 2022) come the findings set out here.

T1 sequence (P02768 whole entry): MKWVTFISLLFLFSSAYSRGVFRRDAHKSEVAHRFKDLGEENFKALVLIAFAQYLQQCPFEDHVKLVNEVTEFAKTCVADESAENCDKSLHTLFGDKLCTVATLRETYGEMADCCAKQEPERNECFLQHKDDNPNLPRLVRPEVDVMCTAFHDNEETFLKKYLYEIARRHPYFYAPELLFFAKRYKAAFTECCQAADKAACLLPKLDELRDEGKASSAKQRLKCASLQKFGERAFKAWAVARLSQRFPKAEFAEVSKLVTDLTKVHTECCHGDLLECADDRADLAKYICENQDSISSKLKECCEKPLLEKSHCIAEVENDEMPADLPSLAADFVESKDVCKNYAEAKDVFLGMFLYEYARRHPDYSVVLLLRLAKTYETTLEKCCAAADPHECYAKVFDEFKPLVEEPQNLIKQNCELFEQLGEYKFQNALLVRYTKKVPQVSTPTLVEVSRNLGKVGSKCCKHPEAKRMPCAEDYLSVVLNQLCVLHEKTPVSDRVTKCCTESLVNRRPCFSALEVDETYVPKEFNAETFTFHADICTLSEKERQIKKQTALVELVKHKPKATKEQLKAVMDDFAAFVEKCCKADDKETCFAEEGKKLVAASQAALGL
Somatostatin receptor type 2 (Mus musculus), sequence (P30875 whole entry): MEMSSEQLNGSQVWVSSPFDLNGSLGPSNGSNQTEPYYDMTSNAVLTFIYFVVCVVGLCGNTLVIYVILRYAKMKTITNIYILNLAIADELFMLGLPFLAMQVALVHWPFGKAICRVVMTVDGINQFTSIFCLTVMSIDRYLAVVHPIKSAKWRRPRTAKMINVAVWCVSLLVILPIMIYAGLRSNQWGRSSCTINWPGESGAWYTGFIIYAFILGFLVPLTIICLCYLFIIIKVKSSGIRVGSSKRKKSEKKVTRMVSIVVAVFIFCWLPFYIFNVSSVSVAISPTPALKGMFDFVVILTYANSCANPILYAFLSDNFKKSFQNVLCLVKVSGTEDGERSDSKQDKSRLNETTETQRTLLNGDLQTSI

Tested on in the first data set: not listed separately
The experiment in a line: Lipophilicity, logD of compound at pH 7.4 under shaking condition by HPLC analysis. Type of data set: physicochemical. The following applies: buffer.
As usually defined, the logD is the decadic logarithm of the distribution of all forms, ionised or not, between an organic phase and buffer at a given pH. A higher logD goes with higher lipophilicity. `[N-]=[N+]=Nc1ccc(C(=O)N[C@@H](CCCCNC(=O)CCCc2ccc(I)cc2)C(N)=O)cc1` had a logD of 3.13.

For the molecule `[N-]=[N+]=Nc1ccc(C(=O)N[C@@H](CCCCNC(=O)CCCc2ccc(I)cc2)C(=O)O)cc1`, the logD amounted to 1.75.

Another data set concerns the target T1, Albumin (Homo sapiens, UniProt P02768). The experiment in a line: Binding affinity to human serum albumin assessed as dissociation constant and measured after 5 mins by MST assay.
Settings: not given
One may read the Kd as the free concentration of one partner at which half of the binding sites on the other are occupied at equilibrium, for simple one-to-one binding. With `[N-]=[N+]=Nc1ccc(C(=O)N[C@H](CCCCNC(=O)CCCc2ccc(I)cc2)C(=O)O)cc1`, the Kd was determined as 2.6 µM.

Turning to `CC(=O)N[C@H](CCCCNC(=O)CCCc1ccc(I)cc1)C(=O)O`, the Kd stood at 8 µM.

The target in another data set is T1, Albumin. The experiment in a line: Binding affinity to human serum albumin assessed as dissociation constant using N-alpha-(6-FAM)-N-epsilon-(4-Iodophenylbutanoyl)-D-lysine as substrate and measured after 5 mins by fluorescence based competition assay.
Settings: not given
Turning to `O=C(CCCc1ccc(I)cc1)NCCCC[C@@H](NC(=O)c1ccc(C(=O)O)c(-c2c3ccc(=O)cc-3oc3cc(O)ccc23)c1)C(=O)O`, the Kd turned out to be 0.23 µM.

The target in another data set is T1, Albumin. The experiment in a line: Binding affinity to human serum albumin assessed as dissociation constant by isothermal titration calorimetry.
Settings: not given
For the molecule `CC(=O)N[C@@H](CCCCNC(=O)CCCc1ccc(I)cc1)C(=O)O`, the Kd came to 9 µM.

`CC(=O)N[C@H](CCCCNC(=O)CCCc1ccc(I)cc1)C(=O)O`: the dissociation constant (Kd) is 3.2 µM.

The next data set has as its target Somatostatin receptor type 2 (Mus musculus) (UniProt P30875). The experiment in a line: Binding affinity to mouse SST2 expressed in mouse pheochromocytoma cells assessed as maximum binding capacity for 1 hr by Nanodrop spectrophotometric analysis. The class given is cell-based. The following applies: Pheochromocytoma cell.
Regarding [64Cu]Cu-DOTA-TATE, the Bmax was determined as 779 fmol/mg.

For [64Cu]Cu-NODAGA-TATE, the Bmax stood at 383 fmol/mg.

The target in a further data set is T1, Albumin. The experiment in a line: Binding affinity to human serum albumin assessed as dissociation constant and measured after 5 mins by fluorescence based competition assay.
Settings: not given
Regarding `[N-]=[N+]=Nc1ccc(C(=O)N[C@@H](CCCCNC(=O)CCCc2ccc(Br)cc2)C(=O)O)cc1`, the Kd was 2 µM.

Turning to `C#CCCC(=O)N[C@H](CCCCNC(=O)CCCc1ccc(I)cc1)C(=O)O`, the Kd came out at 7.3 µM.

For `NC(=O)[C@H](CC(=O)O)NC(=O)CCCc1ccc(I)cc1`, the Kd came out at 100 µM.

Turning to `NC(=O)[C@H](CCC(=O)O)NC(=O)CCCc1ccc(I)cc1`, the dissociation constant (Kd) was determined as 80 µM.

Consider `[N-]=[N+]=Nc1ccc(C(=O)N[C@@H](CCCCNC(=O)CCCc2ccc(F)cc2)C(=O)O)cc1`, for which the Kd came to 26 µM.

With `[N-]=[N+]=NCCCCC(=O)N[C@@H](CCCCNC(=O)CCCc1ccc(I)cc1)C(=O)O`, the Kd amounted to 6 µM.

Turning to `CC(=O)N[C@@H](CCCCNC(=O)CCCc1ccc(I)cc1)C(=O)O`, the Kd is 3.2 µM.

Consider `[N-]=[N+]=NCCCCC(=O)N[C@H](CCCCNC(=O)CCCc1ccc(I)cc1)C(=O)O`, for which the Kd stood at 8 µM.

For the molecule `[N-]=[N+]=Nc1ccc(C(=O)N[C@@H](CCCCNC(=O)CCCc2ccc(C(F)(F)F)cc2)C(=O)O)cc1`, the Kd worked out at 4.1 µM.

Regarding `[N-]=[N+]=Nc1ccc(C(=O)N[C@H](CCCCNC(=O)CCCc2ccc(I)cc2)C(=O)O)cc1`, the Kd is 1.2 µM.

`O=C(O)CN1CCN(CC(=O)O)CCN(C(CCC(=O)N[C@@H](CCCCNC(=O)CCCc2ccc(I)cc2)C(=O)O)C(=O)O)CC1` (stereo not given in full): the Kd stood at 8 µM.

In the case of `COC(=O)[C@H](CCCCNC(=O)CCCc1ccc(I)cc1)NC(C)=O`, the equilibrium dissociation constant (Kd) is 110 µM.

Consider `CC(=O)N[C@H](CCCCNC(=O)CCCc1ccc(I)cc1)C(=O)O`, for which the Kd stood at 7 µM.

Turning to `[N-]=[N+]=Nc1ccc(C(=O)N[C@@H](CCCCNC(=O)CCCc2ccccc2)C(=O)O)cc1`, the equilibrium dissociation constant (Kd) came to 36 µM.

`CC(=O)N[C@@H](CCCCNC(=O)CCCc1ccc(I)cc1)C(N)=O`: the Kd amounted to 70 µM.

For `[N-]=[N+]=Nc1ccc(C(=O)N[C@@H](CCCCNC(=O)CCCc2ccc(Cl)cc2)C(=O)O)cc1`, the Kd was 3.5 µM.

`Cc1ccc(CCCC(=O)NCCCC[C@H](NC(=O)c2ccc(N=[N+]=[N-])cc2)C(=O)O)cc1`: the Kd turned out to be 3 µM.

With `O=C(CCCc1ccc(I)cc1)NCCCC[C@H](C(=O)O)n1cc(-c2ccccc2)nn1`, the Kd was found to be 4 µM.

For the molecule `CC(C)Cc1ccc(C(C)C(=O)NCCCC[C@H](NC(=O)c2ccc(N=[N+]=[N-])cc2)C(=O)O)cc1` (stereo not given in full), the Kd worked out at 4 µM.

On to `C#Cc1ccc(C(=O)N[C@@H](CCCCNC(=O)CCCc2ccc(I)cc2)C(=O)O)cc1`, for which the Kd was determined as 0.34 µM.

`[N-]=[N+]=Nc1ccc(C(=O)N[C@@H](CCCCNC(=O)CCCc2ccc(I)cc2)C(=O)O)cc1`: the Kd was 0.36 µM.
